Consider 15 compounds from US12662489B2 (Sitryx Therapeutics Limited, priority 2023, dated 2026).

The structures appear in SMILES notation.

Assay [1] addresses T1, MTHFD2 recombinant human enzyme (Homo sapiens, UniProt P13995).
T1 sequence (P13995 36-350): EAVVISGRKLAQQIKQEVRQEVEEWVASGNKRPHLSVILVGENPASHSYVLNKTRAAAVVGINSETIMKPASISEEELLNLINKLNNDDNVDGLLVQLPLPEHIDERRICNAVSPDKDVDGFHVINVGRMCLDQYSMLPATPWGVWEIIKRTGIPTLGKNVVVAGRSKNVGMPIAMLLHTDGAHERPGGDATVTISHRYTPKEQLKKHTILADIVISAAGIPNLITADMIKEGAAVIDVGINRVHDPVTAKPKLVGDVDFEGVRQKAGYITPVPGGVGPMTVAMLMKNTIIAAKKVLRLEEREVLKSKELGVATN
Description: MTHFD2 inhibition assay (NAD(P)H-Glo luminescence). As to conditions: for MTHFD1/MTHFD2 IC50 ratio: selectivity of MTHFD2 inhibition over MTHFD1, band.

Assay [2] concerns the target T2, MTHFD1 recombinant human enzyme (Homo sapiens, UniProt P11586).
T2 sequence (P11586 2-291 limits assumed): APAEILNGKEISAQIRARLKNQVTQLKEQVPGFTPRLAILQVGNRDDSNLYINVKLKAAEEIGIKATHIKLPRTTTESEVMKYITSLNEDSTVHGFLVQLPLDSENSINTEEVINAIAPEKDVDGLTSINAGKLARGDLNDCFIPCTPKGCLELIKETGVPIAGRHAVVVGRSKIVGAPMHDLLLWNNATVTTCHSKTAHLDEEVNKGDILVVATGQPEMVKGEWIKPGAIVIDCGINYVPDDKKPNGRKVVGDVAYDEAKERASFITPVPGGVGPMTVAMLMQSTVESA
Description: MTHFD1 inhibition assay (NAD(P)H-Glo luminescence). As to conditions: MTHFD1 IC50, recombinant human enzyme 200 nM, NADP, band.

As a reminder, the IC50 is the point on the concentration scale where inhibition reaches its midpoint. Turning to `COC[C@H]1CN(c2cc(C)c3c4c(c(=O)oc3c2C)CN(C(=O)c2cc(C(=O)NS(=O)(=O)N3CCCC3)cc(OC3CCC3)c2F)CC4)CCN1C` [Example 166, (R)-3-cyclobutoxy-4-fluoro-5-(8-(3-(methoxymethyl)-4-methylpiperazin-1-yl)-7,10-dimethyl-5-oxo-1,3,4,5-tetrahydro-2H-chromeno[3,4-c]pyridine-3-carbonyl)-N-(pyrrolidin-1-ylsulfonyl)benzamide], the figures for the half-maximal inhibitory concentration (IC50) in assay [1] and in assay [2] were 100 to 1000 nM and greater than 5000 nM, respectively. The “MTHFD1/MTHFD2 IC50 ratio” value in assay [1] is on record as “G (^ 3 to 9.0)”.

In the case of `COC[C@H]1CN(c2cc(C)c3c4c(c(=O)oc3c2C)CN(C(=O)c2cc(C(=O)NS(=O)(=O)N3CCCC3)c(OC3CCC3)cc2F)CC4)CCN1C` [Example 165, (R)-2-cyclobutoxy-4-fluoro-5-(8-(3-(methoxymethyl)-4-methylpiperazin-1-yl)-7,10-dimethyl-5-oxo-1,3,4,5-tetrahydro-2H-chromeno[3,4-c]pyridine-3-carbonyl)-N-(pyrrolidin-1-ylsulfonyl)benzamide], in assay [1], the half-maximal inhibitory concentration (IC50) is 100 to 1000 nM and the “MTHFD1/MTHFD2 IC50 ratio” value is “H (>9.0 to 30)”. Besides, in assay [2], the IC50 was greater than 5000 nM.

Turning to `COC[C@H]1CN(c2cc(C)c3c4c(c(=O)oc3c2C)CN(C(=O)c2cc(N(C)C)c(C(=O)NS(=O)(=O)N3CCC(OC)CC3)cc2F)CC4)CCN1C` [Example 289, (R)-2-(dimethylamino)-5-fluoro-4-(8-(3-(methoxymethyl)-4-methylpiperazin-1-yl)-7,10-dimethyl-5-oxo-1,3,4,5-tetrahydro-2H-chromeno[3,4-c]pyridine-3-carbonyl)-N-((4-methoxypiperidin-1-yl)sulfonyl)benzamide], the results for the half-maximal inhibitory concentration (IC50) in assay [1] and in assay [2] were 10 to 100 nM and 100 to 1000 nM, respectively. In addition, in assay [1], the “MTHFD1/MTHFD2 IC50 ratio” value is given as “J (>30)”.

On to `COC[C@H]1CN(c2cc(C)c3c4c(c(=O)oc3c2C)CN(C(=O)c2ccc(C(=O)NS(=O)(=O)C3(C)CC3)c(N3CCCC(F)(F)C3)c2F)CC4)CCN1C` [Example 76, (R)-2-(3,3-difluoropiperidin-1-yl)-3-fluoro-4-(8-(3-(methoxymethyl)-4-methylpiperazin-1-yl)-7,10-dimethyl-5-oxo-1,3,4,5-tetrahydro-2H-chromeno[3,4-c]pyridine-3-carbonyl)-N-((1-methylcyclopropyl)sulfonyl)benzamide], for which the results for the 50% inhibitory concentration (IC50) in assay [1] and in assay [2] were 1 to 10 nM and 10 to 100 nM, respectively.

As for `COC[C@H]1CN(c2ccc3c4c(c(=O)oc3c2C)CN(C(=O)c2ccc(C(=O)NS(=O)(=O)N(C)C(C)C)c(N3CCCC3)c2)CC4)CCN1C` [Example 31, (R)-N-(N-isopropyl-N-methylsulfamoyl)-4-(8-(3-(methoxymethyl)-4-methylpiperazin-1-yl)-7-methyl-5-oxo-1,3,4,5-tetrahydro-2H-chromeno[3,4-c]pyridine-3-carbonyl)-2-(pyrrolidin-1-yl)benzamide], in assay [1], the IC50 was in the range of 1 to 10 nM and the “MTHFD1/MTHFD2 IC50 ratio” value was “G (^ 3 to 9.0)”. The IC50 in assay [2] lay within 10 to 100 nM.

Regarding `COC[C@H]1CN(c2cc(C)c3c4c(c(=O)oc3c2C)CN(C(=O)c2cc(N(C)C)c(C(=O)NS(=O)(=O)N3CCC[C@@H](OC)C3)cc2F)CC4)CCN1C` [Example 286, 2-(dimethylamino)-5-fluoro-4-(8-((R)-3-(methoxymethyl)-4-methylpiperazin-1-yl)-7,10-dimethyl-5-oxo-1,3,4,5-tetrahydro-2H-chromeno[3,4-c]pyridine-3-carbonyl)-N-(((R)-3-methoxypiperidin-1-yl)sulfonyl)benzamide], in assay [1], the 50% inhibitory concentration (IC50) fell in the range of 10 to 100 nM and the “MTHFD1/MTHFD2 IC50 ratio” value is given as “J (>30)”. Also, the IC50 in assay [2] was 100 to 1000 nM.

Turning to `COC[C@H]1CN(c2ccc3c4c(c(=O)oc3c2C)CN(C(=O)c2c(C)cc(C(=O)NS(=O)(=O)N3CCCC3)c(OC3CCC3)c2F)CC4)CCN1C` [Example 140, (R)-2-cyclobutoxy-3-fluoro-4-(8-(3-(methoxymethyl)-4-methylpiperazin-1-yl)-7-methyl-5-oxo-1,3,4,5-tetrahydro-2H-chromeno[3,4-c]pyridine-3-carbonyl)-5-methyl-N-(pyrrolidin-1-ylsulfonyl) benzamide], the IC50 in assay [1] and in assay [2] was 100 to 1000 nM throughout. Further, the “MTHFD1/MTHFD2 IC50 ratio” value in assay [1] was “F (<3)”.

As for `COC[C@H]1CN(c2cc(F)c3c4c(c(=O)oc3c2C)CN(C(=O)c2cc(OC)c(C(=O)NS(=O)(=O)N3C5CCC3CC5)cc2F)CC4)CCN1C` [Example 305, (R)-N-((7-azabicyclo[2.2.1]heptan-7-yl)sulfonyl)-5-fluoro-4-(10-fluoro-8-(3-(methoxymethyl)-4-methylpiperazin-1-yl)-7-methyl-5-oxo-1,3,4,5-tetrahydro-2H-chromeno[3,4-c]pyridine-3-carbonyl)-2-methoxybenzamide], the figures for the 50% inhibitory concentration (IC50) in assay [1] and in assay [2] were 10 to 100 nM and 1000 to 5000 nM, respectively. In addition, the “MTHFD1/MTHFD2 IC50 ratio” value in assay [1] is recorded as “J (>30)”.

In the case of `COC[C@H]1CN(c2cc(C)c3c4c(c(=O)oc3c2C)CN(C(=O)c2ccc(C(=O)NS(=O)(=O)N3CCCC3)c(OCCC(F)(F)F)c2F)CC4)CCN1C` [Example 222, (R)-3-fluoro-4-(8-(3-(methoxymethyl)-4-methylpiperazin-1-yl)-7,10-dimethyl-5-oxo-1,3,4,5-tetrahydro-2H-chromeno[3,4-c]pyridine-3-carbonyl)-N-(pyrrolidin-1-ylsulfonyl)-2-(3,3,3-trifluoropropoxy)benzamide], in assay [1], the half-inhibitory concentration (IC50) was 1 to 10 nM and the “MTHFD1/MTHFD2 IC50 ratio” value is “F (<3)”. Moreover, the 50% inhibitory concentration (IC50) in assay [2] lay within 10 to 100 nM.

For `COC[C@H]1CN(c2cc(C)c3c4c(c(=O)oc3c2C)CN(C(=O)c2cc(OC)c(C(=O)NS(=O)(=O)N(C)C)c(N3CCCC3)c2)CC4)CCN1C` [Example 119, (R)-N-(N,N-dimethylsulfamoyl)-2-methoxy-4-(8-(3-(methoxymethyl)-4-methylpiperazin-1-yl)-7,10-dimethyl-5-oxo-1,3,4,5-tetrahydro-2H-chromeno[3,4-c]pyridine-3-carbonyl)-6-(pyrrolidin-1-yl)benzamide], the half-maximal inhibitory concentration (IC50) in assay [1] is 10 to 100 nM; in assay [2], 100 to 1000 nM. Besides, the “MTHFD1/MTHFD2 IC50 ratio” value in assay [1] is given as “G (^ 3 to 9.0)”.

Consider `COC[C@H]1CN(c2cc(C)c3c4c(c(=O)oc3c2C)CN(C(=O)c2cc3c(c(C(=O)NS(=O)(=O)N5CCCC5)c2)OC2(CCC2)O3)CC4)CCN1C` [Example 167, (R)-6-(8-(3-(methoxymethyl)-4-methylpiperazin-1-yl)-7,10-dimethyl-5-oxo-1,3,4,5-tetrahydro-2H-chromeno[3,4-c]pyridine-3-carbonyl)-N-(pyrrolidin-1-ylsulfonyl)spiro[benzo[d][1,3]dioxole-2,1′-cyclobutane]-4-carboxamide], for which, in assay [1], the IC50 lay within 100 to 1000 nM and the “MTHFD1/MTHFD2 IC50 ratio” value was “H (>9.0 to 30)”. The 50% inhibitory concentration (IC50) in assay [2] is greater than 5000 nM.

Turning to `COC[C@H]1CN(c2ccc3c4c(c(=O)oc3c2Cl)CN(C(=O)c2ccc(C(=O)NS(=O)(=O)N(C)C)c(OC3CCCC3)c2F)CC4)CCN1C` [Example 44, (R)-4-(7-chloro-8-(3-(methoxymethyl)-4-methylpiperazin-1-yl)-5-oxo-1,3,4,5-tetrahydro-2H-chromeno[3,4-c]pyridine-3-carbonyl)-2-(cyclopentyloxy)-N-(N,N-dimethylsulfamoyl)-3-fluorobenzamide], in assay [1], the half-maximal inhibitory concentration (IC50) was 1 to 10 nM and the “MTHFD1/MTHFD2 IC50 ratio” value is recorded as “F (<3)”. The concentration for half-maximal inhibition (IC50) in assay [2] lay within 1 to 10 nM.

As for `CCOc1cc(C(=O)N2CCc3c(c(=O)oc4c(C)c(N5CCN(C)[C@@H](COC)C5)cc(C)c34)C2)cc(C(F)(F)F)c1C(=O)NS(=O)(=O)N1CCCC1` [Example 160, (R)-2-ethoxy-4-(8-(3-(methoxymethyl)-4-methylpiperazin-1-yl)-7,10-dimethyl-5-oxo-1,3,4,5-tetrahydro-2H-chromeno[3,4-c]pyridine-3-carbonyl)-N-(pyrrolidin-1-ylsulfonyl)-6-(trifluoromethyl)benzamide], in assay [1], the IC50 lay within 100 to 1000 nM and the “MTHFD1/MTHFD2 IC50 ratio” value is recorded as “H (>9.0 to 30)”. The IC50 in assay [2] lay within 1000 to 5000 nM.

Consider `COC[C@H]1CN(c2cc(C)c3c4c(c(=O)oc3c2C)CN(C(=O)c2cc(N(C)C)c(C(=O)NS(=O)(=O)N3CCCC3)cc2C(F)(F)F)CC4)CCN1C` [Example 152, (R)-2-(dimethylamino)-4-(8-(3-(methoxymethyl)-4-methylpiperazin-1-yl)-7,10-dimethyl-5-oxo-1,3,4,5-tetrahydro-2H-chromeno[3,4-c]pyridine-3-carbonyl)-N-(pyrrolidin-1-ylsulfonyl)-5-(trifluoromethyl)benzamide], for which, in assay [1], the IC50 is 100 to 1000 nM and the “MTHFD1/MTHFD2 IC50 ratio” value is “H (>9.0 to 30)”. Also, the IC50 in assay [2] is greater than 5000 nM.

Take `COC[C@H]1CN(c2ccc3c4c(c(=O)oc3c2Cl)CN(C(=O)c2ccc(C(=O)NS(=O)(=O)C3(C)CC3)c(OC3CCC3)c2)CC4)CCN1C` [Example 10, (R)-4-(7-chloro-8-(3-(methoxymethyl)-4-methylpiperazin-1-yl)-5-oxo-1,3,4,5-tetrahydro-2H-chromeno[3,4-c]pyridine-3-carbonyl)-2-cyclobutoxy-N-((1-methylcyclopropyl)sulfonyl)benzamide]: in assay [1], the concentration for half-maximal inhibition (IC50) lay in the range of 10 to 100 nM and the “MTHFD1/MTHFD2 IC50 ratio” value was “F (<3)”. For the same compound, the half-maximal inhibitory concentration (IC50) in assay [2] fell in the range of 10 to 100 nM.
